Our source for the inhibition, melting point and inhibition in vivo values is US20130029973A1, “TETRAHYDROBENZOTHIOPHENE COMPOUND” (ASTELLAS PHARMA INC., priority 2010, published 2013).

For one data set, the target named is T1, rat NPT-IIb (Rattus norvegicus, UniProt Q9JJ09).
T1 construct: rat NPT-IIb ORF was cloned into p3×FLAG-CMV-10; 3xFLAG (N); expressed in transfected cells
T1 sequence (Q9JJ09 1-695): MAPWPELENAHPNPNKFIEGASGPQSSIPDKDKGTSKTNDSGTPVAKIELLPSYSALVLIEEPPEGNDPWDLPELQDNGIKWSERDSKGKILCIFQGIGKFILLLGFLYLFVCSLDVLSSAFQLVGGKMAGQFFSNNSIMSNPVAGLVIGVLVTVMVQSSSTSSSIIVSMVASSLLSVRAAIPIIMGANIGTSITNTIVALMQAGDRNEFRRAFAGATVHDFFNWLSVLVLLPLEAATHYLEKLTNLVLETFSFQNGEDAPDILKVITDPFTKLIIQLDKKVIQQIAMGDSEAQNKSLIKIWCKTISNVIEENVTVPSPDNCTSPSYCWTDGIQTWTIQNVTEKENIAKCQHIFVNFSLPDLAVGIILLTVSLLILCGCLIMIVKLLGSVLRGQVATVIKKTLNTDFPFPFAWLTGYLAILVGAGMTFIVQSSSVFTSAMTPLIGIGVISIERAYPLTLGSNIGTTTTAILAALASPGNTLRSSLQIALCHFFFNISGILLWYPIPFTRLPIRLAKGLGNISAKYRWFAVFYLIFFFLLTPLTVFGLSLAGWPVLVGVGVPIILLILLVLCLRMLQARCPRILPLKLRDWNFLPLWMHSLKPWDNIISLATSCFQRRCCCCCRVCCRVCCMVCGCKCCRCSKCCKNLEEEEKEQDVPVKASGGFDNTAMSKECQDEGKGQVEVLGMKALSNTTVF
Nature of the data set: 33P phosphate uptake inhibiting action of rat NPT-IIb expressing cell. Type of data set: cell-based. To be noted: HEK293; evaluation concentration 1 μM; 33P uptake in rat NPT-IIb stably expressing 293 cells; read-out: Rat NPT-IIb inhibitory rate (%). From the text: Test Example 1: ^33P Phosphate Uptake Inhibiting Action of Rat NPT-IIb Expressing Cell
Preparation of Rat NPT-IIb Expressing Cell
Using rat small intestine cDNA library as a template, rat NPT-IIb ORF was cloned into p3×FLAG-CMV-10 by PCR according to a standard method. Then, the cloned rat NPT-IIb expressing plasmid was transfected into 293 cells, and G418 was used to obtain a rat NPT-11b-stably expressing cell line.
Evaluation System on Inhibition of Phosphate Uptake into Rat NPT-IIb Expressing Cell
The rat NPT-Hb expressing cells were seeded into a 96-well plate and incubated overnight. The medium was taken out and washed with buffer A (137 mM N-methyl-D-glucamine, 5.4 mM KCl, 2.8 mM CaCl2, 1.2 mM MgCl2, 10 mM HEPES (adjusted to pH 7.4 with HCl)), and then buffer B (137 mM NaCl, 5.4 mM KCl, 2.8 mM CaCl2, 1.2 mM MgCl2, 0.1 mM KH2PO4, 10 mM HEPES (adjusted to pH 7.4 with KOH)) was added thereto. Then, a compound having 10-fold higher concentration relative to the evaluation concentration was prepared by dilution with the buffer B and added thereto, followed by incubation in CO2 incubator. Buffer B supplemented 50 μCi/mL ^33P was added thereto, followed by further incubation in a CO2 incubator. After the reaction, the buffer was taken out and the cells were washed with buffer C (137 mM NaCl, 10 mM Tris/HCl pH 7.2). Then, Microscint-20 was added thereto and ^33P uptake was measured by using TopCount. The inhibitory rate was determined according to the following equation.
Inhibitory rate (%)=(1−(^33P uptake of drug-treated well)/(^33P uptake of DMSO-added well))×100
For several compounds of the formula (I), rat NPT-11b inhibitory activity at a pharmacological evaluation concentration of 1 μM is shown in Table 1. Here, Ex represents Example No. as denoted below (this shall apply hereinafter).

Data set [1] relates to orally 32P phosphate loaded rats. Nature of the data set: Blood radioactivity increase inhibiting action in orally 32P phosphate loaded rats (phosphate absorption inhibitory action). Type of data set: in vivo. The note with it: Rattus norvegicus, 0.5 h; 3 mg/kg oral, male Wistar rats; from serum radioactivity AUC0-30min vs control group; read-out: Phosphate absorption inhibitory rate (%). The method, then: Blood Radioactivity Increase Inhibiting Action in Orally ^32P Phosphate Loaded Rats (Phosphate Absorption Inhibitory Action)
Male Wistar rats (6 to 7 weeks old) were fasted for 24 hours and used as experimental animals. The compound was dissolved or suspended with a solvent, and was used at a concentration of 0.6 mg/mL. The compound-administered animals were forcibly orally administered with the compound at a dose of 3 mg/kg. Control-group animals were administered a solvent containing no compound at a dose of 5 mL/kg. After 5 minutes from administration of the compound or from administration of the solvent, a ^32P-containing phosphate solution (8.3 mM NaH2PO4) was orally administered thereto at a dose of 7.2 mL/kg. After 15 minutes and 30 minutes, the blood was taken from the orbital venous plexus and the serum was collected. Radioactivity in 0.1 mL of the serum was measured by a liquid scintillation counter. AUC0-30min calculated from the measured counts was considered as a phosphate absorption amount. The phosphate absorption inhibitory rate was determined from the AUC0-30min value according to the following equation.
Phosphate absorption inhibitory rate (%)=(1−Phosphate absorption count of compound-administered group/Phosphate absorption count of control group)×100
As a result, it was confirmed that several compounds of the formula (I) have an intestinal phosphate absorption inhibitory action. With the several compounds of the formula (I), the phosphate absorption inhibitory rates at a pharmacological evaluation dose of 3 mg/kg are shown in Table 2.

As a reminder, the melting point is the temperature, or range, at which the solid turns liquid. `O=C(O)CCCCN(C1CC1)S(=O)(=O)c1cccc(C(=O)Nc2sc3c(c2C(=O)Nc2ccc(CCc4ccc(C(=O)O)cc4)cc2)CCCC3)c1` [Example 34, 4-{2-[4-({[2-({3-[(4-carboxybutyl)(cyclopropyl)sulfamoyl]benzoyl}amino)-4,5,6,7-tetrahydro-1-benzothiophen-3-yl]carbonyl}amino)phenyl]ethyl}benzoic acid] had a melting point of 220.1 °C. For the same compound, the inhibition at 1 µM at rat NPT-IIb stood at 80%. In addition, in data set [1], the inhibition in vivo at 3 mg/kg was at least 60%.
The matching figures for `CCN(C1(C(=O)O)CC1)S(=O)(=O)c1cccc(C(=O)Nc2sc3c(c2C(=O)Nc2ccc(CCc4ccc(C(=O)O)cc4)cc2)CCCC3)c1` [Example 14, 4-{2-[4-({[2-({3-[(1-carboxycyclopropyl)(ethyl)sulfamoyl]benzoyl}amino)-4,5,6,7-tetrahydro-1-benzothiophen-3-yl]carbonyl}amino)phenyl]ethyl}benzoic acid]: 254.7 °C, 71% and 47%.
